Data from patent publication US20260272934A1 (The United States of America, as represented by the …, priority 2023, published 2026).
Where two headings read alike, the source gives them in different places. Each block holds one molecule with its values, some of them ahead of it.

How the values were obtained:
[1] = tested on: multiple myeloma-derived L363 cells; test: Colorimetric MTS cell viability assay; type: cell-based; details: for Cell efficacy (GI50) Mean ± SD: N.S. = Not significant; for GI50: Homo sapiens, L-363, N.S. = Not significant, read-out: Cell efficacy (GI50) Mean ± SD
From the text: • *Data from Park, J. E., et al {Park, 2023 #3387}. **Data from Alverez C. N., et al {Alverez, 2020 #3186}. N. S., Not significant; N. D., Not determined. ^a IC50 values determined from at least three independent experiments except as noted in parentheses. b A colorimetric MTS cell viability assay carried out using multiple myeloma-derived L363 cells.

[2] = tested on: Plk2 PBD; test: FP-based inhibition assay; type: binding; details: N.S. = Not significant
Description: (§1) In the following, PBD1-3 fluorescence polarization (FP) binding assays were carried out for determining the Plk1 specificity. FP assays were carried out essentially as described previously {Liu, 2011 #2790; Qian, 2014 #1416}. All samples were analyzed approximately 30 min after reaction in a 384-well format using the SpectraMax Paradigm multi-mode microplate detection platform (Molecular Devices). Data were analyzed after carrying out at least three independent experiments using GraphPad Prism software version 7.

[3] = tested on: Plk3 PBD; test: FP-based inhibition assay; type: binding; details: N.S. = Not significant
Description: as §1

[4] = target: PBD1 (Homo sapiens, UniProt P53350); test: FP-based inhibition assay; type: binding; details: read-out: PBD1 IC50 ± SD
PBD1, sequence (P53350 371-594 limits assumed): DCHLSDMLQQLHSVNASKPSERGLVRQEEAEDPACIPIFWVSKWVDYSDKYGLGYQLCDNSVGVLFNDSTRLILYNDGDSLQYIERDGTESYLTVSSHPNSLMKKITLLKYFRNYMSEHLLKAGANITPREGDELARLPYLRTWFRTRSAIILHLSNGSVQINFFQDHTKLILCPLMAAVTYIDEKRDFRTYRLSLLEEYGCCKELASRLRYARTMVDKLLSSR
Description: as §1, with “FP assays were carried out essentially as described previously {Liu, 2011 #2790; Qian, 2014 #1416}.” left out

[5] = target: T1, full-length Plk1 / biotinylated PBIP1 phospho-T78 peptide interaction (Homo sapiens, UniProt P53350); details: *Data from Park, J. E., et al 2023; read-out: ELISA (IC50) Mean ± SEM; cited from earlier work
T1 construct: HA; EGFP; expressed in transfected cells; host or cells: HEK293A cells infected with adenovirus; total lysates
T1 sequence (P53350 whole entry): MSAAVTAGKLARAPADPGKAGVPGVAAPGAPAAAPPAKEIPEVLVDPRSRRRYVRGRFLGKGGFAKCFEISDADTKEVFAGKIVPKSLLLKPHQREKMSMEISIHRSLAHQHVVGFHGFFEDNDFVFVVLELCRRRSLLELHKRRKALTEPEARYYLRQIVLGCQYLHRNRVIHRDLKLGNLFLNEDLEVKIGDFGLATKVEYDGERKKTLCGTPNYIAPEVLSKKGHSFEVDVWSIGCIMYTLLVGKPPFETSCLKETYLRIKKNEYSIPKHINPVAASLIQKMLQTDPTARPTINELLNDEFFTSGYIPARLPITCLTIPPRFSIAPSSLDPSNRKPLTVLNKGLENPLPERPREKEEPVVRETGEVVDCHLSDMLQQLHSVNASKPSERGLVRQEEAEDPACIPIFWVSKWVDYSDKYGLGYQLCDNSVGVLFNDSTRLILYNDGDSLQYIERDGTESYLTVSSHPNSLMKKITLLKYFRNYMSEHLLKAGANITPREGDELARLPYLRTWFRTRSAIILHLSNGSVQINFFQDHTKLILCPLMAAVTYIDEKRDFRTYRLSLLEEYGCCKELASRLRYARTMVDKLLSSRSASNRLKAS

[6] = tested on: multiple myeloma-derived L363 cells; details: MTS, *Data from Park, J. E., cited from earlier work
[7] = *Data from Park, J. E., et al 2023; cited from earlier work
[8] = target: T1, full-length Plk1 / biotinylated PBIP1 phospho-T78 peptide interaction; test: ELISA-based PBD1-binding inhibition assay; details: at least three independent experiments; read-out: ELISA (IC50) Mean ± SEM
[9] = Solubility remark in Table 1; type: physicochemical

SMILES: CC(=O)N1CCC[C@H]1C(=O)N[C@@H](CC(C)C)C(=O)N[C@@H](Cc1cnc[nH]1)C(=O)N[C@@H](CO)C(=O)N[C@H](C(=O)O)[C@@H](C)O [Compound 1, PLHST, reference compound]
Cell efficacy (GI50) Mean ± SD [1]: N.S.

SMILES: CC(=O)N1CCC[C@H]1C(=O)N[C@@H](CC(C)C)C(=O)N[C@@H](Cc1cnc[nH]1)C(=O)N[C@@H](CO)C(=O)N[C@H](C(=O)O)[C@@H](C)OP(=O)(O)O [Compound 2, PLHSpT, reference compound]
Cell efficacy (GI50) Mean ± SD [1]: N.S.
Plk2 PBD IC50 ± SD [2]: N.S.
Plk3 PBD IC50 ± SD [3]: N.S.

SMILES: CCCn1c(=O)c2sc(C)cc2n2c(=S)[nH]nc12 [Compound 3]
IC50 [4]: 0.0102 ± 0.0015 µM
Plk2 PBD IC50 ± SD [2]: N.S.
Plk3 PBD IC50 ± SD [3]: N.S.
IC50 [5]: 2.15 ± 0.13 µM
Cell efficacy (GI50) Mean ± SD ([6]; et al 2023): N.S.

SMILES: CCCn1c(=O)c2sc(C)cc2n2c(Sc3c([N+](=O)[O-])ncn3C)nnc12 [Compound 4]
IC50 [5]: > 50 µM
GI50 ([6]; et al 2023, read-out: Cell efficacy (GI50) Mean ± SD): 4.88 ± 0.1 µM
solubility [7]: low solubility

SMILES: Cc1cc2c(s1)c(=O)n(CC1CC1)c1n[nH]c(=S)n21 [Compound 5, 4-(Cyclopropylmethyl)-7-methyl-1-thioxo-2,4-dihydrothieno[2,3-e][1,2,4]triazolo[4,3-a]pyrimidin-5 (1H)-one]
IC50 [8]: 1.66 ± 0.04 µM
Cell efficacy (GI50) Mean ± SD [1]: N.S.
IC50 [4]: 0.0128 ± 0.0026 µM
Plk2 PBD IC50 ± SD [2]: N.S.
Plk3 PBD IC50 ± SD [3]: N.S.

SMILES: Cc1cc2c(s1)c(=O)n(CC1CC1)c1nnc(Sc3c([N+](=O)[O-])ncn3C)n21 [Compound 6, 4-(Cyclopropylmethyl)-7-methyl-1-((1-methyl-4-nitro-1H-imidazol-5-yl)thio) thieno[2,3-e][1,2,4]triazolo[4,3-a]pyrimidin-5 (4H)-one]
IC50 [8]: > 50 µM
GI50 [1]: 3.13 ± 0.15 µM
solubility [9]: low solubility

SMILES: O=C(CCCCC1SCC2NC(=O)NC21)NCCOCCOCCOCCOCCC(=O)NCCCn1c(=O)c2cc(F)ccc2n2c(=S)[nH]nc12 (centres unmarked) [Compound 22, N-(3-(7-Fluoro-5-oxo-1-thioxo-1,2-dihydro-[1,2,4]triazolo[4,3-a]quinazolin-4 (5H)-yl)propyl)-1-(5-(2-oxohexahydro-1H-thieno[3,4-d]imidazol-4-yl)pentanamido)-3,6,9,12-tetraoxapentadecan-15-amide]
IC50 [8]: 9.32 ± 0.17 µM

Other lines, results leading:

IC50 [8]: > 50 µM
GI50 [1]: 8.31 ± 0.56 µM
SMILES: CCCn1c(=O)c2oc3ccccc3c2n2c(Sc3c([N+](=O)[O-])ncn3C)nnc12 [Compound 8, 1-((1-Methyl-4-nitro-1H-imidazol-5-yl)thio)-4-propylbenzofuro[2,3-e][1,2,4]triazolo[4,3-a]pyrimidin-5(4H)-one]

IC50 [8]: > 50 µM
GI50 [1]: 7.53 ± 0.43 µM
SMILES: CCCn1c(=O)c2oc3cccc(F)c3c2n2c(Sc3c([N+](=O)[O-])ncn3C)nnc12 [Compound 10, 10-Fluoro-1-((1-methyl-4-nitro-1H-imidazol-5-yl)thio)-4-propylbenzofuro[2,3-e][1,2,4]triazolo[4,3-a]pyrimidin-5 (4H)-one]

IC50 [8]: > 50 µM
GI50 [1]: 8.4 ± 0.74 µM
solubility [9]: moderate solubility
SMILES: CCCn1c(=O)c2sccc2n2c(Sc3c([N+](=O)[O-])ncn3C)nnc12 [Compound 12, 1-((1-Methyl-4-nitro-1H-imidazol-5-yl)thio)-4-propylthieno[2,3-e][1,2,4]triazolo[4,3-a]pyrimidin-5 (4H)-one]

IC50 [8]: > 50 µM
GI50 [1]: 6.04 ± 0.17 µM
SMILES: CCCn1c(=O)c2sc(Cl)cc2n2c(Sc3c([N+](=O)[O-])ncn3C)nnc12 [Compound 14, 7-Chloro-1-((1-methyl-4-nitro-1H-imidazol-5-yl)thio)-4-propylthieno[2,3-e][1,2,4]triazolo[4,3-a]pyrimidin-5 (4H)-one]

IC50 [8]: > 50 µM
GI50 [1]: 4.19 ± 0.15 µM
solubility [9]: moderate solubility
SMILES: CCCn1c(=O)c2sc(C(C)(C)C)cc2n2c(Sc3c([N+](=O)[O-])ncn3C)nnc12 [Compound 16, 7-(tert-Butyl)-1-((1-methyl-4-nitro-1H-imidazol-5-yl)thio)-4-propylthieno[2,3-e][1,2,4]triazolo[4,3-a]pyrimidin-5 (4H)-one]

IC50 [8]: > 50 µM
GI50 [1]: 7.05 ± 0.27 µM
SMILES: CCCn1c(=O)c2sc3ccccc3c2n2c(Sc3c([N+](=O)[O-])ncn3C)nnc12 [Compound 18, 1-((1-Methyl-4-nitro-1H-imidazol-5-yl)thio)-4-propylbenzo[4,5]thieno[2,3-e][1,2,4]triazolo[4,3-a]pyrimidin-5 (4H)-one]
